Measurements from article doi:10.1101/2024.10.11.617762v1 (biorxiv, 2024).

Experiments:
[1] = biological target: T1, N-CTD (C-terminal domain of the SARS-CoV-2 nucleocapsid (N) protein) (Severe acute respiratory syndrome coronavirus 2, UniProt P0DTC9); assay: biochemical; type: binding
[2] = biological target: T1, N-CTD (C-terminal domain of the SARS-CoV-2 nucleocapsid (N) protein); assay: fluorescence intensity inhibition of FAM-RNA binding; type: biochemical

| SMILES | Kd [1] | IC50 [2] |
| --- | --- | --- |
| CC1(C)S[C@@H]2[C@H](NC(=O)[C@H](N)c3ccccc3)C(=O)N2[C@H]1C(=O)O [ampicillin] | 28 ± 1.2 µM | 10.4 ± 0.2 µM |
| CO/N=C(\C(=O)N[C@@H]1C(=O)N2C(C(=O)O)=C(CSc3nc(=O)c(=O)[nH]n3C)CS[C@H]12)c1csc(N)n1 [ceftriaxone] | 18 ± 1.3 µM | 12.4 ± 2.4 µM |
| CO/N=C(\C(=O)N[C@@H]1C(=O)N2C(C(=O)O)=C(COC(N)=O)CS[C@H]12)c1ccco1 [cefuroxime] | 55 ± 4.2 µM | 15.4 ± 2.8 µM |
